This passage reports TGI and GI50 results from PubChem BioAssay (NCI).

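Each compound was tested at five concentrations against cells in 96-well plates for 48 hours. Abbreviation: GI50, concentration required for 50% inhibition of growth. TGI denotes the concentration required for complete inhibition of growth.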

Among the test systems are M19-MEL melanoma; HOP-18 NSCLC; LXFL 529 NSCLC; XF 498 CNS; KM20L2 colon; DMS 273 small cell lung; MDA-N; DMS 114 small cell lung; RXF-631 renal; P388 leukemia; SN12K1 renal; P388/ADR leukemia.
Common to all, as to experiment: NCI tumour cell line growth inhibition, 48 h

For the molecule `Cc1ccc(NC(=O)CCC(CC(=O)C(C)(C)C)=NNC(=O)C(=O)NN)cc1C`, the TGI in the assay on M19-MEL melanoma, in the assay with HOP-18 NSCLC, in the assay on LXFL 529 NSCLC, in the assay on XF 498 CNS, in the assay with KM20L2 colon and in the assay on DMS 273 small cell lung was greater than 100 µM throughout.

In the case of `Cn1c2ccccc2c(=S)c2ccccc21`, the TGI in the assay with MDA-N was greater than 100 µM.

With `COc1cc(/C=C2/C(=O)N(C(=O)OC(C)C)C(Cc3cc(OC)c(OC)c(C)c3OC)C(=O)N2Cc2ccccc2)c(OC)c(C)c1OC` (centres undefined), the TGI in the assay on M19-MEL melanoma, with HOP-18 NSCLC, in the assay on LXFL 529 NSCLC, in the assay with DMS 114 small cell lung, in the assay on KM20L2 colon and in the assay with DMS 273 small cell lung was greater than 100 µM throughout.

`COc1ccc(C(=O)OCC2OC(n3cnc4c(=S)nc[nH]c43)C(OC(=O)c3ccc(OC)cc3)C2OC(=O)c2ccc(OC)cc2)cc1` (centres undefined): the TGI in the assay on M19-MEL melanoma, with LXFL 529 NSCLC, with DMS 114 small cell lung, in the assay on KM20L2 colon and in the assay on DMS 273 small cell lung was greater than 100 µM each time.

On to `CCC[CH2][Sn]1([CH2]CCC)[O]C(=O)c2cc(I)cc(I)c2[O]1`, for which the GI50 is 1 µM in the assay with M19-MEL melanoma; 1.62 µM in the assay with HOP-18 NSCLC; 0.247 µM in the assay with LXFL 529 NSCLC; 0.303 µM in the assay with DMS 114 small cell lung; 1.84 µM with KM20L2 colon; 1.28 µM in the assay with DMS 273 small cell lung. Also, the TGI was 2.19 µM in the assay on M19-MEL melanoma; 3.03 µM in the assay with HOP-18 NSCLC; 1.33 µM in the assay with LXFL 529 NSCLC; 1.19 µM in the assay with DMS 114 small cell lung; 3.39 µM in the assay with KM20L2 colon; 2.82 µM in the assay on DMS 273 small cell lung.

Molecule `COc1cccc(C2c3cc4c(cc3OC(C)(O)C2C)OCO4)c1O` (centres undefined) yielded a TGI with MDA-N of 4.69 µM.

Regarding `Cc1c(Cl)ccc2c1NC(=O)C2(O)C(C(=O)c1ccccc1)c1ccccc1` (centres undefined), the TGI was 30.6 µM in the assay with M19-MEL melanoma; greater than 100 µM with HOP-18 NSCLC; greater than 100 µM in the assay with LXFL 529 NSCLC; 96.9 µM in the assay on XF 498 CNS; 44.2 µM with DMS 114 small cell lung; greater than 100 µM with RXF-631 renal. Besides, the TGI in the assay on KM20L2 colon and in the assay on DMS 273 small cell lung was greater than 100 µM in each case.

In turn, `C=C1C(=O)O[C@@H]2C[C@@]3(C)CCC[C@H](C)C3=C[C@H]12` showed a TGI in the assay with MDA-N of 16.6 µM.

On to `C/C(=C\C(C)COCc1ccccc1)[C@H](COCc1ccccc1)OCc1ccccc1` (some centres undefined), for which the TGI in the assay with M19-MEL melanoma, in the assay with LXFL 529 NSCLC, with XF 498 CNS, with DMS 114 small cell lung, in the assay with RXF-631 renal and with KM20L2 colon was greater than 100 µM throughout. The molecule also showed a TGI with DMS 273 small cell lung greater than 100 µM.

Consider `CCC(C)(C)C(=O)O[C@H]1C[C@@H](C)C=C2C=C[C@H](C)[C@H](CC[C@@H]3C[C@@H](O)CC(=O)O3)[C@H]21`, for which the TGI with M19-MEL melanoma, with HOP-18 NSCLC, in the assay on LXFL 529 NSCLC, in the assay on XF 498 CNS, in the assay on DMS 114 small cell lung and with RXF-631 renal was greater than 30 µM throughout. The TGI in the assay with KM20L2 colon and in the assay on DMS 273 small cell lung was greater than 30 µM in each case.

As to `Cc1ccc(NC(=O)C(=O)C2C(=O)N(c3ccccc3)N=C2N)cc1C` (centres undefined), the TGI in the assay on M19-MEL melanoma, with HOP-18 NSCLC, with LXFL 529 NSCLC, with XF 498 CNS, in the assay on DMS 114 small cell lung and in the assay on RXF-631 renal was greater than 100 µM throughout. The TGI in the assay with KM20L2 colon and in the assay with DMS 273 small cell lung was greater than 100 µM throughout.

`COc1cc(/C=C2\[C@H]3c4c(c(OC)c(C)c(OC)c4OC)C[C@@H](C(=O)N2Cc2ccccc2)N3C(=O)OCC(C)C)c(OC)c(C)c1OC`: the TGI in the assay with M19-MEL melanoma, in the assay on HOP-18 NSCLC, in the assay with LXFL 529 NSCLC, with XF 498 CNS, in the assay with KM20L2 colon and in the assay on DMS 273 small cell lung was greater than 100 µM throughout.

As to `O=c1/c(=C/c2cccc([N+](=O)[O-])c2)sc2nc3ccccc3n12`, the TGI with M19-MEL melanoma, with LXFL 529 NSCLC, with XF 498 CNS, in the assay on DMS 114 small cell lung and with DMS 273 small cell lung was greater than 100 µM throughout.

With `COc1ccc(CCN2C(=O)C=CC2=O)cc1OC`, the TGI with MDA-N was 33.5 µM.

Consider `[O-]c1c2c(nn1-c1ccccc1)c1ccccc1c[n+]2Cc1ccccc1`, for which the TGI in the assay on M19-MEL melanoma, in the assay on HOP-18 NSCLC, with LXFL 529 NSCLC, in the assay with XF 498 CNS, in the assay with DMS 114 small cell lung and in the assay with RXF-631 renal was greater than 100 µM each time. The TGI with KM20L2 colon and in the assay with DMS 273 small cell lung was greater than 100 µM each time.

Consider `CC(=O)OC(/C=C1/C=CC(=O)O1)COC(=O)c1ccccc1` (centres undefined), for which the TGI in the assay on M19-MEL melanoma, in the assay on HOP-18 NSCLC, in the assay with LXFL 529 NSCLC, in the assay on XF 498 CNS, in the assay with DMS 114 small cell lung and in the assay on KM20L2 colon was greater than 31.2 µM throughout. The molecule also came in with a TGI in the assay on DMS 273 small cell lung greater than 31.2 µM.

In the case of `CCOC(=O)C12CCCC1(O)N(NC(=O)c1ccccc1)C(C)=C2C(=O)OC` (centres undefined), the TGI in the assay with M19-MEL melanoma, in the assay with HOP-18 NSCLC, with LXFL 529 NSCLC, in the assay with KM20L2 colon and with DMS 273 small cell lung was greater than 100 µM each time.

For the molecule `CC1=NN(c2ccccc2)C(=O)C1N=Nc1ccc([As](=O)(O)O)c(O)c1` (centres undefined), in the assay with MDA-N, the TGI was greater than 100 µM.

On to `CC1CC2(C)ON=C(c3ccccc3)N2c2ccccc2S1` (centres undefined), for which the GI50 with MDA-N was 34.2 µM.

Turning to `COC(=O)NC1C(C)OC(OC2C/C=C(/C)C3C=CC4C(OC5CC(OC6CC(O)C(OC7CC(O)C(OC)C(C)O7)C(C)O6)C(O)C(C)O5)C(C)CC(C)C4C3(C)/C(O)=C3\C(=O)OC4(CC(C)C(CO)=CC4/C=C\2C)C3=O)CC1(C)[N+](=O)[O-]` (centres undefined), the TGI came out at 13.1 µM in the assay with M19-MEL melanoma; 17.4 µM in the assay with P388 leukemia; 31.4 µM in the assay on HOP-18 NSCLC; 9.19 µM in the assay on LXFL 529 NSCLC; 27 µM in the assay on XF 498 CNS; 11.5 µM in the assay with DMS 114 small cell lung. The TGI turned out to be 41.7 µM in the assay on RXF-631 renal; 19.5 µM in the assay on MDA-N; 22.6 µM with SN12K1 renal; 34 µM in the assay with KM20L2 colon; 28.9 µM in the assay on DMS 273 small cell lung; 98.1 µM in the assay on P388/ADR leukemia.
